Data from patent US9751854B2 (Millennium Pharmaceuticals, Inc., priority 2014, dated 2017).

Biological target: human VPS34 (Homo sapiens (Human), UniProt Q8NEB9)
Experiment: Human VPS34 enzyme assay (Adapta TR-FRET ADP detection)
Type: biochemical
Design: Percent Inhibition: dose or concentration left out as unconfirmed
Settings: for IC50: IC50 range class

Sequence of human VPS34 (Q8NEB9 whole entry): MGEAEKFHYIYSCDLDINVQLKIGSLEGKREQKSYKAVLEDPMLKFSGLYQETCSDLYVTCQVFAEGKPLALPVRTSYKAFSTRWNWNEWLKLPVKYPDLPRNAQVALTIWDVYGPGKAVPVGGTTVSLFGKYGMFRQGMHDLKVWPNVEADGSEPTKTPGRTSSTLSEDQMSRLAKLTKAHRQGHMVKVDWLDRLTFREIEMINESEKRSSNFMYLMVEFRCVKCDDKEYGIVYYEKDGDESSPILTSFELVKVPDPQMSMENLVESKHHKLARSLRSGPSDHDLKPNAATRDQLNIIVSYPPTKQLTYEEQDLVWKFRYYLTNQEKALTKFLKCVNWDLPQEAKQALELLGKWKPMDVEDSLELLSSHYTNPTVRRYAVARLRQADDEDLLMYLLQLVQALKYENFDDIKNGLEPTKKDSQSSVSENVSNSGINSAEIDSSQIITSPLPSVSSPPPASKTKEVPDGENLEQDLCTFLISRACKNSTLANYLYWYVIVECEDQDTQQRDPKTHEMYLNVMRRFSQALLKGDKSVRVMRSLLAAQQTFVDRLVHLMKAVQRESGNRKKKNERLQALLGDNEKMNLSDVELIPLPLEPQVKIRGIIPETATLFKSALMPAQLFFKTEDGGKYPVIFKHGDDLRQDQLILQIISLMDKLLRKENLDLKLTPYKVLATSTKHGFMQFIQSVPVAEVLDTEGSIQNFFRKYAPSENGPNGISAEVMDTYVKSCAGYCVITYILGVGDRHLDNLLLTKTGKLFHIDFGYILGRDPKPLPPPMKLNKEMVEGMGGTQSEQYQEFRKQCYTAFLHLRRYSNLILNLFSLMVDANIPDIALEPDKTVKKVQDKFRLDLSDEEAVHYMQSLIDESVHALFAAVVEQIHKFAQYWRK

| SMILES | IC50 | Percent Inhibition |
| --- | --- | --- |
| CC(=O)Nc1cc(-c2cncc(N3CCCS3(=O)=O)c2)ccn1 [Compound I-192, N-[5-(1,1-dioxidoisothiazolidin-2-yl)-3,4′-bipyridin-2′-yl]acetamide] | 50 to 100 nM | – |
| CC(=O)Nc1cc(-c2cnc(C)c(NC(=O)c3ccc(F)cc3F)c2)ccn1 [Compound I-115, N-(2′-acetamido-6-methyl-3,4′-bipyridin-5-yl)-2,4-difluorobenzamide] | > 100 nM | – |
| CC(=O)Nc1cc(-c2cnc(N)c(S(=O)(=O)N(C(C)C)C(C)C)c2)ccn1 [Compound I-77, N-[6-amino-5-(diisopropylsulfamoyl)-3,4′-bipyridin-2′-yl]acetamide] | < 10 nM | – |
| CC(=O)Nc1cc(-c2cnc3c(c2)CCN3)ccn1 [Compound I-67, N-[4-(2,3-dihydro-1H-pyrrolo[2,3-b]pyridin-5-yl)pyridin-2-yl]acetamide] | 50 to 100 nM | – |
| CC(=O)Nc1cc(-c2cnc(C)c(NS(=O)(=O)N(C)C)c2C)ccn1 [Compound I-260, N-{5-[(dimethylsulfamoyl)amino]-4,6-dimethyl-3,4′-bipyridin-2′-yl}acetamide] | 10 to 50 nM | – |
| CC(=O)Nc1cc(-c2cnc(C)c(NS(=O)(=O)c3ccc(C(F)(F)F)cc3)c2)ccn1 [Compound I-90, N-[6-methyl-5-({[4-trifluoromethyl)phenyl]sulfonyl}amino-3,4′-bipyridin-2′-yl]acetamide] | < 10 nM | – |
| CC(=O)Nc1cc(-c2cnc3c(c2)S(=O)(=O)N[C@@H](c2ccccc2)CO3)ccn1 [Compound I-334, (S)-N-[4-(1,1-dioxido-3-phenyl-3,4-dihydro-2H-pyrido[2,3-b][1,4,5]oxathiazepin-8-yl)pyridin-2-yl]acetamide] | > 100 nM | – |
| CC(=O)Nc1cc(-c2cnc3[nH]ncc3c2)ccn1 [Compound I-189, N-[4-(1H-pyrazolo[3,4-b]pyridin-5-yl)pyridin-2-yl]acetamide] | 50 to 100 nM | – |
| Cc1nccc(Nc2cc(-c3cncc(C(C)Oc4ccccc4Cl)c3)ccn2)n1 (stereo not drawn) [Compound I-336, 5-[1-(2-chlorophenoxy)ethyl]-N-(2-methylpyrimidin-4-yl)-3,4′-bipyridin-2′-amine] | 10 to 50 nM | – |
| CC(=O)Nc1cc(-c2cnc(Cl)c(C(=O)N(C)C)c2)ccn1 [Compound I-213, 2′-acetamido-6-chloro-N,N-dimethyl-3,4′-bipyridine-5-carboxamide] | 50 to 100 nM | – |
| CC(=O)Nc1cc(-c2cnc(Cl)c(NS(=O)(=O)N3CC4CCC3C4)c2C)ccn1 (stereo not drawn) [Compound I-477, N-{5-[(2-azabicyclo[2.2.1]hept-2-ylsulfonyl)amino]-6-chloro-4-methyl-3,4′-bipyridin-2′-yl}acetamide] | 10 to 50 nM | – |
| CC(=O)Nc1cc(-c2cnc(C)c(NS(=O)(=O)c3ccc(F)cc3F)c2)cc[n+]1[O-] [Compound I-219, N-[4-(5-{[(2,4-difluorophenyl)sulfonyl]amino}-6-methylpyridin-3-yl)-1-oxidopyridin-2-yl]acetamide] | 50 to 100 nM | – |
| CC(=O)Nc1cc(-c2cnc(C)c(C(=O)N(C)C)c2)ccn1 [Compound I-75, 2′-acetamido-N,N,6-trimethyl-3,4′-bipyridin-5-carboxamide] | 50 to 100 nM | – |
| CCc1c(-c2ccnc(NC(C)=O)c2)cnc(Cl)c1NS(=O)(=O)c1ccc(F)cc1F [Compound I-469, N-(6-chloro-5-{[(2,4-difluorophenyl)sulfonyl]amino}-4-ethyl-3,4′-bipyridin-2′-yl)acetamide] | 10 to 50 nM | – |
| CC(=O)Nc1cc(-c2cnc(N)c(S(=O)(=O)Cc3ccccc3Cl)c2)ccn1 [Compound I-172, N-{6-amino-5-[(chlorobenzyl)sulfonyl]-3,4′-bipyridin-2′-yl}acetamide] | 10 to 50 nM | – |
| CCCCN(CCCC)S(=O)(=O)Nc1cc(-c2ccnc(NC(C)=O)c2)cnc1C [Compound I-350, N-{5-[(dibutylsulfamoyl)amino]-6-methyl-3,4′-bipyridin-2′-yl}acetamide] | < 10 nM | – |
| Cc1nccc(Nc2cc(-c3cnc(C)c(NC(=O)c4ccc(F)cc4F)c3)ccn2)n1 [Compound I-249, 2,4-difluoro-N-{6-methyl-2′-[(2-methylpyrimidin-4-yl)amino]-3,4′-bipyridin-5-yl}benzamide] | 50 to 100 nM | – |
| Cc1c(-c2ccnc(N)c2)cnc(Cl)c1NS(=O)(=O)c1ccc(F)cc1F [Compound I-287, N′-(2′-amino-6-chloro-4-methyl-3,4′-bipyridin-5-yl)-2,4-difluorobenzenesulfonamide] | > 100 nM | 91% |

More lines, now with the values ahead:

| IC50 | Percent Inhibition | SMILES |
| --- | --- | --- |
| 10 to 50 nM | – | Cc1nccc(Nc2cc(-c3cnc(C)c(C(=O)N4CC(C)(C)C4)c3)ccn2)n1 [Compound I-495, (3,3-dimethylazetidin-1-yl){6-methyl-2′-[(2-methylpyrimidin-4-yl)amino]-3,4′-bipyridin-5-yl}methanone] |
| 10 to 50 nM | – | CNS(=O)(=O)c1cc(-c2ccnc(NC(C)=O)c2)cnc1N [Compound I-89, N-[6-amino-5-(methylsulfamoyl)-3,4′-bipyridin-2′-yl]acetamide] |
| < 10 nM | – | Cc1c(-c2ccnc(Nc3ccncn3)c2)cnc(Cl)c1NS(=O)(=O)c1ccc(F)cc1F [Compound I-282, N-[6-chloro-4-methyl-2′-(pyrimidin-4-ylamino)-3,4′-bipyridin-5-yl]-2,4-difluorobenzenesulfonamide] |
| 10 to 50 nM | – | CC(=O)Nc1cc(-c2cnc(N)c(S(=O)(=O)Cc3ccc(Cl)cc3)c2)ccn1 [Compound I-99, N-[6-amino-5-[(4-chlorobenzyl)sulfonyl]-3,4′-bipyridin-2′-yl]acetamide] |
| 10 to 50 nM | – | Cc1nccc(Nc2cc(-c3cc(NC(=O)N4CC(F)(F)C4)c4ccnn4c3)ccn2)n1 [Compound I-407, 3,3-difluoro-N-(6-{2-[(2-methylpyrimidin-4-yl)amino]pyridin-4-yl}pyrazolo[1,5-a]pyridin-4-yl)azetidine-1-carboxamide] |
| 10 to 50 nM | – | CC(=O)Nc1cc(-c2cncc(N3CCOc4cc(F)ccc4S3(=O)=O)c2)ccn1 [Compound I-405] |
| 10 to 50 nM | – | CC(=O)Nc1cc(-c2cnc(N(C)C)c(NS(=O)(=O)c3ccc(F)cc3F)c2)ccn1 [Compound I-25, N-[5-{[(2,4-difluorophenyl)sulfonyl]amino}-6-(dimethylamino)-3,4′-bipyridin-2′-yl]acetamide] |
| 10 to 50 nM | – | CC(=O)Nc1cc(-c2cncc(NS(=O)(=O)N(C)C)c2)ccn1 [Compound I-348, N-{5-[(dimethylsulfamoyl)amino]-3,4′-bipyridin-2′-yl}acetamide] |
| 10 to 50 nM | – | Cc1ncc(-c2ccnc(NC(=O)C3CC3(F)F)c2)cc1NS(=O)(=O)c1ccc(F)cc1F (single isomer, unassigned) [Compound I-267a, N-(5-{[(2,4-difluorophenyl)sulfonyl]amino}-6-methyl-3,4′-bipyridin-2′-yl)-2,2-difluorocyclopropanecarboxamide] |
| < 10 nM | – | CC(=O)Nc1cc(-c2cnc(C)c(NS(=O)(=O)c3ccc(C(C)(C)C)cc3)c2)ccn1 [Compound I-131, N-(5-{[(4-tert-butylphenyl)sulfonyl]amino}-6-methyl-3,4′-bipyridin-2′-yl)acetamide] |
| 10 to 50 nM | 94% | Cc1ncc(-c2ccnc(NC(=O)C3CC3(F)F)c2)cc1NS(=O)(=O)c1ccc(F)cc1F (single isomer, unassigned) [Compound I-267b, N-(5-{[(2,4-difluorophenyl)sulfonyl]amino}-6-methyl-3,4′-bipyridin-2′-yl)-2,2-difluorocyclopropanecarboxamide] |
| < 10 nM | – | Cc1nccc(Nc2cc(-c3cnc(C)c(NS(=O)(=O)N(C)C)c3)ccn2)n1 [Compound I-286, N,N-dimethyl-N′-{6-methyl-2′-[(2-methylpyrimidin-4-yl)amino]-3,4′-bipyridine-5-yl}sulfuric diamide] |
| 10 to 50 nM | – | CC(=O)Nc1cc(-c2cnc(N)c(S(=O)(=O)Cc3ccccc3)c2)ccn1 [Compound I-6, N-[6-amino-5-(benzylsulfonyl)-3,4′-bipyridin-2′-yl]acetamide] |
| < 10 nM | – | CC(=O)Nc1cc(-c2cnc(C)c(NS(=O)(=O)c3ccc(OC(F)(F)F)cc3Cl)c2)ccn1 [Compound I-113, N-[5-({[2-chloro-4-(trifluoromethoxy)phenyl]sulfonyl}amino)-6-methyl-3,4′-bipyridin-2′-yl]acetamide] |
| 10 to 50 nM | – | Cc1cnc(NC(=O)C2CC2)cc1-c1cnc(Cl)c(NS(=O)(=O)c2ccc(F)cc2F)c1C [Compound I-430, N-(6-chloro-5-{[(2,4-difluorophenyl)sulfonyl]amino}-4,5′-dimethyl-3,4′-bipyridin-2′-yl)cyclopropanecarboxamide] |
| 10 to 50 nM | – | CC(=O)Nc1cc(-c2cnc(C)c(N3CCN(C)S3(=O)=O)c2)ccn1 [Compound I-386, N-[6-methyl-5-(5-methyl-1,1-dioxido-1,2,5-thiadiazolidin-2-yl)-3,4′-bipyridin-2′-yl]acetamide] |
| < 10 nM | – | CC(=O)Nc1cc(-c2cnc(C)c(NS(=O)(=O)c3c(Cl)cccc3Cl)c2)ccn1 [Compound I-463, N-[5-{[(2,6-dichlorophenyl)sulfonyl]amino}-6-methyl-3,4′-bipyridin-2′-yl)acetamide] |
| 10 to 50 nM | – | COC(=O)Nc1cc(-c2cncc(S(=O)(=O)N3CCOCC3)c2)ccn1 [Compound I-332, methyl [5-(morpholin-4-ylsulfonyl)-3,4′-bipyridin-2′-yl]carbamate] |
| < 10 nM | – | COC(=O)Nc1cc(-c2cnc(N)c(S(=O)(=O)N(C)C)c2)ccn1 [Compound I-171, Methyl [6-amino-5-(dimethylsulfamoyl)-3,4′-bipyridin-2′-yl]carbamate] |
| 10 to 50 nM | – | COc1ncc(-c2ccnc(NC(C)=O)c2)c(C)c1S(=O)(=O)NC(C)(C)C [Compound I-442, N-[5-(tert-butylsulfamoyl)-6-methoxy-4-methyl-3,4′-bipyridin-2′-yl]acetamide] |
| < 10 nM | – | CC(=O)Nc1cc(-c2cnc(N)c(S(=O)(=O)NCC3CCCCC3)c2)ccn1 [Compound I-183, N-{6-amino-5-[(cyclohexylmethyl)sulfamoyl]-3,4′-bipyridin-2′-yl}acetamide] |
| 10 to 50 nM | – | CC(=O)Nc1cc(-c2cnc(C)c(NS(=O)(=O)N3CCC(F)(F)CC3)c2)ccn1 [Compound I-374, N-(5-{[(4,4-difluoropiperidin-1-yl)sulfonyl]amino}-6-methyl-3,4′-bipyridin-2′-yl)acetamide] |
